PubChem BioAssay AID1645864 (Buhrlage Lab, Dana-Farber Cancer Institute and Novartis …, 2021)
Calls of active or inactive are those of the source.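 Rule for the calls: active = maximal inhibition of USP17 at or above 30% in the confirmation dose-response, a value not among the printed readouts; inactive = the rest.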

Molecular target: Ubiquitin carboxyl-terminal hydrolase 17-like protein 5 (Homo sapiens) (UniProt A8MUK1)
Test: ubiquitin-specific protease 17 DUB inhibitors, concentration-effect assay, cell-free, verification of initial screening actives (AID 1645864)
Settings: purified USP17, ubiquitin-rhodamine cleavage fluorescence, 3 h

Chain of Ubiquitin carboxyl-terminal hydrolase 17-like protein 5 (Homo sapiens) (A8MUK1 whole entry, looked up): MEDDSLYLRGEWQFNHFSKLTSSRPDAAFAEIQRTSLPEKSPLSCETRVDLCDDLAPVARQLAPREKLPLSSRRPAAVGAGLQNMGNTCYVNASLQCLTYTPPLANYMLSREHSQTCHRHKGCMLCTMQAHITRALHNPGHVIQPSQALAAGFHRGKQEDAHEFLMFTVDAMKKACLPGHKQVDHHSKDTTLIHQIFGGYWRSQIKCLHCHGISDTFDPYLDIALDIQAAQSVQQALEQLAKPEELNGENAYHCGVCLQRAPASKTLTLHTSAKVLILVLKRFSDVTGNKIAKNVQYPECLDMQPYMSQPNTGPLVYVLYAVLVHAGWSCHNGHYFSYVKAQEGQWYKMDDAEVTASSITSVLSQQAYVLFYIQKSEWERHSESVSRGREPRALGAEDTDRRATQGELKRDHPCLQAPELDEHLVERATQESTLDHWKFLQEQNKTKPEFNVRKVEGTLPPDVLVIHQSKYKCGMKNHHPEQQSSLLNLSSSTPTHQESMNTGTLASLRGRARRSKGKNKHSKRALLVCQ

Cc1cc(=O)n(CC(=O)NCc2ccccc2F)c2c1c(C)nn2-c1ccccc1
IC50: 24.2 µM

CCCCCCCc1cc(O)cc(O)c1
IC50: > 50 µM (inactive)

COc1ccc(Nc2nc(C(=O)NCc3ccc4c(c3)OCO4)cc3occc23)cc1
IC50: 10.7 µM

COc1ccc(-n2ccc(=O)c(-c3nc(-c4ccccc4F)no3)n2)cc1OC
IC50: > 50 µM (inactive)

CC1CCN(C(=O)c2cn(-c3cc(N4CCC(C)CC4)ncn3)cn2)CC1
IC50: > 50 µM (inactive)

CC(=O)c1cc2c(=O)c3c(C(=O)O)c(O)c(O)cc3oc2c(C(C)=O)c1-c1coc2cc(O)c(O)c(C(=O)O)c2c1=O
IC50: 0.49 µM

CS(=O)(=O)n1nc(NCc2ccc(F)cc2)nc1NCc1ccc(F)cc1
IC50: > 50 µM (inactive)

CC(=O)c1cccc(NC(=O)c2ccc3[nH]c4c(c3c2)CC(C)CC4)c1 (stereo not given)
IC50: > 50 µM (inactive)

CC(=O)N1CCCC(c2nc(C)cc(-c3cc(F)ccc3C(=O)O)n2)C1 (stereo not given)
IC50: > 50 µM (inactive)

COc1ccc(-c2cc3c(=O)n(CC(=O)Nc4ccccc4F)ccn3n2)cc1OC
IC50: 3.97 µM

Cc1nc(NCc2ccccn2)c2cc(-c3ccccc3)sc2n1
IC50: 24.7 µM

Cc1cccc(NC(=O)Cn2c(-c3cnccn3)nc(C)c(C)c2=O)c1C
IC50: > 50 µM (inactive)

Cc1ccc(S(=O)(=O)N2CCCCC2)cc1NC(=O)Cc1cccc(F)c1
IC50: > 50 µM (inactive)

COc1ccc(C)cc1NC(=O)CSc1nc(C)nc2c1oc1ccccc12
IC50: 22.3 µM

Cc1ccc(S(=O)(=O)N2CCC3(CC2)NC(=O)c2ccccc2N3)c(C)c1
IC50: 17.9 µM

CCC(C)c1ccc(O[C@@H]2O[C@@H]3COC(c4ccccc4)O[C@H]3[C@H](O)[C@H]2NC(C)=O)cc1 (stereo not given in full)
IC50: 16.6 µM

c1ccc2c(c1)ccc1nnc(-c3ccc4c(c3)OCO4)n12
IC50: > 50 µM (inactive)

O=C(c1ccco1)N1CCCC2(C1)Nc1cccnc1NC2=NC1CCCC1 (stereo not given)
IC50: > 50 µM (inactive)

Cc1ccc2[nH]c(=O)c(CN(CC3COCCO3)S(=O)(=O)c3ccc(F)cc3)cc2c1 (stereo not given)
IC50: 4.16 µM

CCOc1ccc(CCNC(=O)c2cccc3c2C(=O)N(CCOC)C3)cc1OCC
IC50: > 50 µM (inactive)

Cn1ccc2c(cc(C(=O)NCCC3=CCCCC3)n2C)c1=O
IC50: > 50 µM (inactive)

COc1ccc(CNC(=O)CSc2nc3nc(C)ccc3o2)cc1
IC50: 25 µM

Cc1cc(NC(=O)c2cc(-c3cccnc3)n[nH]2)ccc1Br
IC50: 1.95 µM

Cc1cn[nH]c1C1COCCN1C(=O)c1ccc2ncccc2c1 (stereo not given)
IC50: > 50 µM (inactive)

O=S(=O)(c1cccc(F)c1)N1CCN(c2nnnn2-c2ccccc2)CC1
IC50: 40.3 µM

Cc1cc(C)c2sc(N(CCCn3ccnc3)C(=O)Cc3ccccc3)nc2c1
IC50: 21.7 µM

CC1CCCN(CCCNC(=O)c2ccc(N3CCc4ccccc43)s2)C1 (stereo not given)
IC50: > 50 µM (inactive)

CC(=O)c1ccc(NC(=O)c2ccc(N3CCCCS3(=O)=O)cc2Cl)cc1
IC50: 30.6 µM

CC1(O)CC(=O)c2c(cc3cc(O)cc(O)c3c2O)C1 (stereo not given)
IC50: 0.115 µM

CCOc1ccc2c(c1)c(=O)c(C(=O)c1ccccc1)cn2CC(=O)Nc1ccc2c(c1)OCCO2
IC50: 20.4 µM

CCOC(=O)CSc1nnc(-c2cnn(-c3ccccc3)c2N)o1
IC50: 20.5 µM

CC(=O)c1ccc(NC(=O)c2nc3ccccc3nc2N2CCOCC2)cc1
IC50: > 50 µM (inactive)

CCOc1ccc(NC(=O)Cn2cc(C(=O)c3ccc(Cl)cc3)c(=O)c3cc(OC)ccc32)cc1
IC50: 2.74 µM

Cc1ccc(NC(=O)c2ccc3nn(CC(=O)Nc4ccc(F)cc4F)c(=O)n3c2)cc1
IC50: 2.79 µM

Cc1ccc(N=Cc2sc(O)c3ccccc23)c(C)c1
IC50: > 50 µM (inactive)

CCn1cc(-c2nc(-c3ccccc3)no2)c(=O)c2cc(F)ccc21
IC50: 2.34 µM

CCCCCC(O)c1c(O)cc2c(c1O)C(=O)c1c(O)cc(O)cc1C2=O (stereo not given)
IC50: > 50 µM (inactive)

COc1ccc(OC)c(C2CC(=O)Nc3n[nH]c(-c4ccccc4)c32)c1 (stereo not given)
IC50: 24.6 µM

COc1ccc(C2SCC(=O)Nc3c2c(=O)[nH]n3C2CCCCC2)cc1 (stereo not given)
IC50: 28.7 µM

Cc1ccccc1NC(=O)c1ccc(N2CCCCC2)nn1
IC50: > 50 µM (inactive)

Cc1c(C)n(-c2ccccc2)c2ncn(CC(=O)NC(C)c3ccccc3)c(=O)c12 (stereo not given)
IC50: 22.5 µM

COc1ccc(C(=O)CSc2nnc(-c3cc4cccc(OC)c4o3)n2C)cc1OC
IC50: > 50 µM (inactive)

C=C(NC(=O)C(=C)NC(=O)c1csc(C2=N[C@@H]3c4csc(n4)[C@H]4NC(=O)c5csc(n5)[C@H]([C@](C)(O)[C@@H](C)O)NC(=O)[C@H]5CSC(=N5)/C(=C/C)NC(=O)C([C@@H](C)O)NC(=O)c5csc(n5)C3(CC2)NC(=O)[C@H](C)NC(=O)C(=C)NC(=O)[C@H](C)NC(=O)C([C@@H](C)CC)N[C@@H]2C=Cc3c(C(C)O)cc(nc3[C@H]2O)C(=O)OC4C)n1)C(N)=O (stereo not given in full)
IC50: > 50 µM (inactive)

Cc1noc(-c2cc(=O)n(CC(=O)NCc3ccccc3F)c3ccccc23)n1
IC50: 4.88 µM

CC(C)(C)n1ncc2c(=O)n(Cc3cccc([N+](=O)[O-])c3)cnc21
IC50: > 50 µM (inactive)

O=C(Cn1cncc(-c2nc(-c3ccccc3)cs2)c1=O)NC1CCCC1
IC50: 39.5 µM

Cc1ccc2c(Nc3ccc(CC(=O)O)cc3)c(C(=O)N3CCCC3)cnc2n1
IC50: > 50 µM (inactive)

O=C(Nc1cc(F)c2nc(N3CCOCC3)ccc2c1)C1CC1
IC50: 7.47 µM

COc1ccc(CCNC(=O)CCCCn2c(=O)c3ccccc3n(Cc3cccc(Cl)c3)c2=O)cc1OC
IC50: 35.3 µM

COc1ccc(C(=O)Nc2sc3c(c2C(=O)NCc2cccnc2)CCCC3)cc1
IC50: 6.19 µM

N#Cc1cc2c(nc1SCC(=O)NCc1ccccc1)CCCC2
IC50: > 50 µM (inactive)

Cc1ccc(NC(=O)CCC(=O)Nc2ccc3nc(N4CCCCC4)cc(C)c3c2)c(Br)c1
IC50: 49.7 µM

CC(C)=CCC/C(C)=C/Cc1c(O)cc2c(c1O)C(=O)OC2
IC50: 1.7 µM

C/C=C\C1=CC(=O)[C@]23C[C@H]2[C@]2(C)CO[C@@]1(O)[C@@]3(O)O2
IC50: > 50 µM (inactive)

Cc1cccc(COc2ccc(C3SCC(=O)Nc4n[nH]c(C)c43)cc2)c1 (stereo not given)
IC50: 20.6 µM

O=C(Nc1ccccc1)c1nc2c(s1)CCN(C(=O)c1ccccc1)CC2
IC50: > 50 µM (inactive)

CCOc1ccc(NC(=O)c2cc(-c3ccccc3)c(N3CCOCC3)s2)cc1
IC50: 19.9 µM

Cc1cc(NC(=O)c2nnn(-c3ccccc3Cl)c2C)no1
IC50: > 50 µM (inactive)

Cc1ccc2c(c1)N(Cc1nc(-c3ccc(F)cc3)no1)C(=O)CO2
IC50: > 50 µM (inactive)

O=c1c2cnc(N3CCOCC3)nc2ccn1CCc1ccccc1
IC50: 18 µM

N#Cc1ccc(NC(=O)Nc2cccn(Cc3c(F)cccc3Cl)c2=O)cc1
IC50: 3.86 µM

c1ccc(CCN2CCc3nc4cccnc4cc3C2)nc1
IC50: > 50 µM (inactive)

CC1CC(=O)c2c(cc3c(-c4c(O)cc(O)c5c(O)c6c(cc45)OC(C)CC6=O)c(O)cc(O)c3c2O)O1 (stereo not given)
IC50: 0.486 µM

COc1cccc(NC(=O)c2ccc(-c3csc(C)n3)cc2)c1
IC50: > 50 µM (inactive)

Cc1ccc(C(=O)Nc2cc3c4c(c2)CC(=O)N4CCC3)cc1C
IC50: > 50 µM (inactive)

COc1cc(OC)c2c(c1)C(=O)C1=C(COC(C)(O)C1)C2=O (stereo not given)
IC50: 3.44 µM

COc1ccc(-c2ccnc(-c3ccc(OCc4cccc(F)c4)cc3)n2)cc1
IC50: 37.2 µM

Cc1ccc(NC(=O)c2sc(=S)n(CCc3ccccc3)c2N)cc1
IC50: 2.42 µM

CCn1cc(-c2nc(-c3ccccn3)no2)c(=O)c2cc(F)ccc21
IC50: 32.5 µM

C[C@@H](C(=O)NCc1ccc(F)cc1)N1C(=O)N2CCc3c([nH]c4ccccc34)[C@@]2(C)C1=O
IC50: 5.77 µM

O=C(COc1nc2ccccc2nc1N1CCOCC1)NC(c1ccccc1)c1ccccc1
IC50: > 50 µM (inactive)

Cc1cc(=O)n(CC(=O)Nc2ccccc2F)c(Nc2ccc(F)cc2)n1
IC50: 12.9 µM

FC(F)(F)c1cccc(N2CCN(c3nc4ccccc4n4nnnc34)CC2)c1
IC50: > 50 µM (inactive)

COc1cc2c(c(OCC(=O)Nc3ccc4c(c3)OCCO4)c1)C(=O)O[C@@H](C)CCCC(=O)CCCCC2
IC50: 23.1 µM

Cc1cc(/C=C2/C(=N)N3C(c4ccccc4)=CSC3=NC2=O)c(C)n1-c1ccc(F)cc1
IC50: > 50 µM (inactive)

O=C(Nc1nnc2n1CCCS2)c1cc2ccccc2o1
IC50: > 50 µM (inactive)

O=C(Cn1c(=O)n(-c2ccccc2)c(=O)c2ccc(C(=O)NCc3ccc4c(c3)OCO4)cc21)NCCC1=CCCCC1
IC50: 16.9 µM

Nc1c(-c2ccc(Cl)cc2)cnc2nc(Sc3ncc(C(F)(F)F)cc3Cl)nn12
IC50: > 50 µM (inactive)

Cc1cccc(C(=O)Nc2cccc(SC(C(=O)Nc3ccc(Cl)c(C(=O)O)c3)c3ccccc3)c2)c1 (stereo not given)
IC50: 15.2 µM

Cc1cc(O)c(Oc2cc(C)cc(O)c2O)c(O)c1
IC50: 26.6 µM

Cc1cc(C)n(-c2ccc(C(=O)NCc3ccc(F)cc3)cn2)n1
IC50: 33.9 µM

CCOc1ccccc1NC(=O)Cn1ccn2nc(-c3ccc(OC)cc3)cc2c1=O
IC50: 6.49 µM

COCCNC(=O)c1ccc(-c2ccc(N3CCCCC3)nc2)cc1
IC50: 26.8 µM

O=C(COC(=O)c1ccc2ncsc2c1)Nc1ccccc1F
IC50: > 50 µM (inactive)

Cc1ccc(CNC(=O)CCCn2c(=O)c3sccc3n(CC(=O)Nc3cc(Cl)ccc3C)c2=O)cc1
IC50: 2.83 µM

CCCc1c(C(=O)O)c(O[C@H]2O[C@H](C)[C@@H](OC)[C@H](OC)[C@@H]2OC)cc2cc3c(c(O)c12)C(=O)c1c(O)cc(O[C@@H]2O[C@@H](C)[C@H](O[C@H]4O[C@H](C)[C@@H](OC)[C@H](OC)[C@@H]4O)[C@@H](OC)[C@H]2O)cc1C3=O
IC50: > 50 µM (inactive)

O=C(c1ccco1)N1CCN=C1SCc1ccccc1F
IC50: > 50 µM (inactive)

O=C(Nc1ccccc1)c1ccc2c(c1)CC(c1ccccc1)OC2=O (stereo not given)
IC50: 16 µM

COc1ccccc1NC(=O)c1cc(-c2ccccn2)nc2ccccc12
IC50: 9.53 µM

COc1ncccc1CN1CCn2c(Cn3cncn3)cnc2C1C (stereo not given)
IC50: > 50 µM (inactive)

Cc1c(C)n(-c2ccccc2)c2ncn(CC(=O)NCCCc3ccccc3)c(=O)c12
IC50: 34.4 µM

O=C(Nc1cccn(Cc2c(Cl)cccc2Cl)c1=O)c1ccccc1[N+](=O)[O-]
IC50: 37 µM

O=C(Nc1ccc(Cl)cc1F)c1cc(-c2ccccn2)n[nH]1
IC50: 0.323 µM

CCCCN1CC(C(=O)Nc2ccc(C(=O)Nc3ccc(Cl)cc3)cc2)CC1=O (stereo not given)
IC50: 16.5 µM

CC(=O)Nc1ccc(S(=O)(=O)NCc2ccc(C(=O)NCCc3ccc(Cl)cc3)cc2)cc1
IC50: 2.31 µM
